Literature values in patent US8648085B2, “1, 5-dihydro-pyrazolo (3, 4-D) pyrimidin-4-one derivatives and their use as PDE9A mudulators for the treatment of CNS disorders” (Boehringer Ingelheim International GmbH, priority 2007, dated 2014).

Key:
[1] = target: T1, Murine PDE9A (Mus musculus, UniProt O70628); conditions: concentrations below 200 [mu]M; cited from earlier work
T1 sequence (O70628 1-534): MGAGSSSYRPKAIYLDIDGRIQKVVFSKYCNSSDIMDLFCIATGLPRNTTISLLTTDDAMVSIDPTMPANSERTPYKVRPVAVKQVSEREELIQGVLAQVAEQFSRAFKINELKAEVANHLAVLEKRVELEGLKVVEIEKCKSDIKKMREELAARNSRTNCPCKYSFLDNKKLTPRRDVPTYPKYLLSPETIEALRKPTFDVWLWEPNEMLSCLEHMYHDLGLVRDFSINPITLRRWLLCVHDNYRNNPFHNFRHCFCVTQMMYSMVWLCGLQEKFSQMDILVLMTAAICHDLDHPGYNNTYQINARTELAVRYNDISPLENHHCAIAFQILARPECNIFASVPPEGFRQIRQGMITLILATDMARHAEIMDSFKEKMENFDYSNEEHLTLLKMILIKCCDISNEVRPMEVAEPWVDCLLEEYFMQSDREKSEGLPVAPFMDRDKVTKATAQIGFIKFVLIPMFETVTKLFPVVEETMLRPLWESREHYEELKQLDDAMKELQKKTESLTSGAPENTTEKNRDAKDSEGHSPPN

[2] = target: PDE9A (Homo sapiens, UniProt O76083); conditions: concentrations of up to 100 [mu]M; cited from earlier work
PDE9A, sequence (O76083 whole entry): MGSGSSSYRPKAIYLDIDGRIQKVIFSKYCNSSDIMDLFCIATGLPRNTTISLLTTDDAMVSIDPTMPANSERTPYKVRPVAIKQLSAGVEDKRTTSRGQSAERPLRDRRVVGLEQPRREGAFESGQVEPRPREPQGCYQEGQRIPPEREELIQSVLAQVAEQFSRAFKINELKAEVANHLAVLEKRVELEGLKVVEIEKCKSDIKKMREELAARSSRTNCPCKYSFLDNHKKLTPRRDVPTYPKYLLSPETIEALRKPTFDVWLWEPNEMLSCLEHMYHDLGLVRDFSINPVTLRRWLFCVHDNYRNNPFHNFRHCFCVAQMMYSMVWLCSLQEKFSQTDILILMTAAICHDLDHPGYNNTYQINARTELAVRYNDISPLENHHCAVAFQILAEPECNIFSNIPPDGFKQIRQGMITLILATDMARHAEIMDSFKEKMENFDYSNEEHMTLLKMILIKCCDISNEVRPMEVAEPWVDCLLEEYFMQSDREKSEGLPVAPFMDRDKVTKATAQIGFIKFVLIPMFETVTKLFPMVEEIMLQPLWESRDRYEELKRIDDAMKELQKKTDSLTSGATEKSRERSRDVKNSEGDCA

In the case of CC(C)Cn1c(=O)n(C)c(=O)c2[nH]cnc21 [IBMX], the “inhibition of murine PDE9A” value [1] is listed as “not inhibited” and the “inhibition on the isolated enzyme (human PDE9A)” value [2] is listed as “no inhibition”.
